Assay results from patent publication US11078499B2, “Host cells and methods for producing toluene biochemically” (The Regents of the University of California, priority 2018, dated 2021).

Tested on: PhdB
Test: Assays testing whether PhdB could decarboxylate o-, m-, or p-hydroxyphenylacetate, equimolar with phenylacetic acid-2-13C
Assay type: biochemical, Acidobacteria strain Tolsyn
Details: for PhdB activity on substrate: relative to phenylacetate, equimolar 2.5 mM
Description: Analogous assays with o- and m-hydroxyphenylacetate similarly indicated very low (in this case, undetectable) PhdB activity for these hydroxyphenylacetate isomers, whereas labeled toluene is easily detected.
Assays for phenylacetate decarboxylase activity were performed under strictly anaerobic conditions within a glove box. Assays, which were performed in 4-mL glass vials sealed with 13-mm diameter PTFE Mininert screw-cap valves (Sigma-Aldrich), contained […] PhdA in assay buffer [50 mM TRIS (pH 7.5), 150 mM NaCl, 1 mM MgCl2, 5 mM (NH4)2SO4, 5 mM DTT)], to which 2 mM dithionite was added and incubated for ˜1 hour, followed by the addition of 2 mM SAM, 2.5 μM PhdB in assay buffer, and 2.5 mM phenylacetic acid-2-^13C in a final volume of 1 or 1.5 mL (depending on the specific experiment). Quantitative standards contained the same headspace/liquid ratios as assays and a dimensionless Henry's constant of 0.27^43 was used to calculate aqueous concentration. Negative controls were run concurrently and were identical except for the absence of SAM (FIG. 6). The vials were shaken on a tabletop orbital shaker at low speed. Gaseous headspace samples (100 μL) were taken within the glove box using a 500-μL gastight syringe (Sample-Lok series A-2; Sigma-Aldrich) and analyzed immediately by GC/MS, as described previously^8. Briefly, toluene was analyzed by static headspace, electron ionization (EI) GC/MS using a model 7890A GC (Agilent, Santa Clara, Calif.) with a DB-5 fused silica capillary column (30-m length, 0.25-mm inner diameter, 0.25-μm film thickness; Agilent) coupled to an HP 5975C series quadrupole mass spectrometer. As described elsewhere^8, the identity of [methyl-^13C]toluene was confirmed with the expected m/z 93/92 ratio of 0.6. Replicates involved separate assays rather than multiple analyses of a given assay sample. In assays testing whether PhdB could decarboxylate o-, m-, or p-hydroxyphenylacetate to o-, m-, or p-cresol, conditions were as described above except that equimolar amounts (2.5 mM) of o-, m-, or p-hydroxyphenylacetic acid (Sigma) and phenylacetic acid-2-^13C were added, and GC/MS analysis of o-, m-, or p-cresol in 1-μL liquid injections of concentrated hexane extracts were conducted as described previously^8. The identity of o-, m-, or p-cresol was assessed using retention time and the expected m/z 108/107 ratio of 1.16, 1.05, or 0.83, respectively, based on authentic standards.

Row | Structure (SMILES) | PhdB activity on substrate | p-cresol level relative to that expected if PhdB activity were comparable to phenylacetate (equimolar phenylacetate and p-hydroxyphenylacetate (2.5 mM) with PhdA, PhdB and SAM)
1 | O=C(O)Cc1cccc(O)c1 [m-hydroxyphenylacetate, m-hydroxyphenylacetic acid] | undetectable | –
2 | O=C(O)Cc1ccccc1O [o-hydroxyphenylacetate, o-hydroxyphenylacetic acid] | undetectable | –
3 | O=C(O)Cc1ccc(O)cc1 [p-hydroxyphenylacetate] | far lower activity | approximately 100 fold lower
